In PubChem BioAssay (NCI):
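The compound was tested at five concentrations on cells cultured in 96-well plates, with a 48-hour exposure period. TGI denotes the concentration required for complete inhibition of growth.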

Key:
Assay in all cases: NCI tumour cell line growth inhibition, 48 h
U251 CNS = tested on: U251 CNS
SF-268 CNS = tested on: SF-268 CNS
UO-31 renal = tested on: UO-31 renal
MALME-3M melanoma = tested on: MALME-3M melanoma
SW-620 colon = tested on: SW-620 colon
MOLT-4 leukemia = tested on: MOLT-4 leukemia
DU-145 prostate = tested on: DU-145 prostate
SK-OV-3 ovarian = tested on: SK-OV-3 ovarian
CCRF-CEM leukemia = tested on: CCRF-CEM leukemia
NCI-H460 lung = tested on: NCI-H460 lung

C#CCNC(Cc1cnc[nH]1)C(=O)O (stereo not given)
TGI (U251 CNS): > 100 µM
TGI (SF-268 CNS): > 100 µM
TGI (UO-31 renal): > 100 µM
TGI (MALME-3M melanoma): > 100 µM
TGI (SW-620 colon): > 100 µM
TGI (MOLT-4 leukemia): > 100 µM
TGI (DU-145 prostate): > 100 µM
TGI (SK-OV-3 ovarian): > 100 µM
TGI (CCRF-CEM leukemia): > 100 µM
TGI (NCI-H460 lung): > 100 µM

OC1CCCC1C(O)(C(F)(F)F)C(F)(F)F (stereo not given)
TGI (U251 CNS): > 100 µM
TGI (SF-268 CNS): > 100 µM
TGI (UO-31 renal): > 100 µM
TGI (MALME-3M melanoma): > 100 µM
TGI (SW-620 colon): > 100 µM
TGI (MOLT-4 leukemia): > 100 µM
TGI (DU-145 prostate): > 100 µM
TGI (SK-OV-3 ovarian): > 100 µM
TGI (CCRF-CEM leukemia): > 100 µM
TGI (NCI-H460 lung): > 100 µM

O=C(C1=C(C(=O)c2ccccc2)SC2(S1)C(C(=O)c1ccccc1)=C(C(=O)c1ccccc1)Sc1c2ssc1=O)c1ccccc1
TGI (U251 CNS): > 100 µM
TGI (SF-268 CNS): > 100 µM
TGI (UO-31 renal): > 100 µM
TGI (MALME-3M melanoma): > 100 µM
TGI (SW-620 colon): > 100 µM
TGI (MOLT-4 leukemia): > 100 µM
TGI (DU-145 prostate): > 100 µM
TGI (SK-OV-3 ovarian): > 100 µM
TGI (CCRF-CEM leukemia): > 100 µM
TGI (NCI-H460 lung): > 100 µM

CCC1(CC)C(=O)CC[C@@]2(C)C1=CC[C@H]1[C@@H]3CC[C@H](O)[C@@]3(C)CC[C@@H]12
TGI (U251 CNS): 33.9 µM
TGI (SF-268 CNS): 99.2 µM
TGI (UO-31 renal): 34.7 µM
TGI (MALME-3M melanoma): > 100 µM
TGI (SW-620 colon): 63.1 µM
TGI (MOLT-4 leukemia): 54.8 µM
TGI (DU-145 prostate): 85.4 µM
TGI (SK-OV-3 ovarian): > 100 µM
TGI (CCRF-CEM leukemia): 45.7 µM
TGI (NCI-H460 lung): 32.2 µM

Cc1ccc(S(=O)(=O)n2cncc2CO)cc1
TGI (U251 CNS): > 100 µM
TGI (SF-268 CNS): > 100 µM
TGI (UO-31 renal): > 100 µM
TGI (MALME-3M melanoma): > 100 µM
TGI (SW-620 colon): > 100 µM
TGI (MOLT-4 leukemia): > 100 µM
TGI (DU-145 prostate): > 100 µM
TGI (SK-OV-3 ovarian): > 100 µM
TGI (CCRF-CEM leukemia): > 100 µM
TGI (NCI-H460 lung): > 100 µM

Cc1nnc2cc(C(=O)O)c3ccccc3n2c1=O
TGI (U251 CNS): > 10 µM
TGI (SF-268 CNS): > 10 µM
TGI (UO-31 renal): > 10 µM
TGI (MALME-3M melanoma): > 10 µM
TGI (SW-620 colon): > 10 µM
TGI (MOLT-4 leukemia): > 10 µM
TGI (DU-145 prostate): > 10 µM
TGI (SK-OV-3 ovarian): > 10 µM
TGI (CCRF-CEM leukemia): > 10 µM
TGI (NCI-H460 lung): > 10 µM

CCCCCc1cc2c(cc1O)CC[C@@H]1[C@@H]2CC[C@]2(C)[C@@H](O)CC[C@@H]12
TGI (U251 CNS): 38.1 µM
TGI (SF-268 CNS): 38.9 µM
TGI (UO-31 renal): 28.4 µM
TGI (MALME-3M melanoma): 35.5 µM
TGI (SW-620 colon): 46.4 µM
TGI (MOLT-4 leukemia): 85.3 µM
TGI (DU-145 prostate): 31.4 µM
TGI (SK-OV-3 ovarian): 45 µM
TGI (CCRF-CEM leukemia): 92.8 µM
TGI (NCI-H460 lung): 36.5 µM

Cc1csc2c1C(=O)c1ccsc1C2=O
TGI (U251 CNS): 13.6 µM
TGI (SF-268 CNS): 12.1 µM
TGI (UO-31 renal): 8.85 µM
TGI (MALME-3M melanoma): 1.07 µM
TGI (SW-620 colon): 5.31 µM
TGI (MOLT-4 leukemia): 27.2 µM
TGI (DU-145 prostate): 3.29 µM
TGI (SK-OV-3 ovarian): 40.5 µM
TGI (CCRF-CEM leukemia): > 100 µM
TGI (NCI-H460 lung): 3.46 µM

CCOC(=O)c1ccc2nc(NC(=O)COC(=O)CSc3nc(C)cc(C)n3)sc2c1
TGI (U251 CNS): > 100 µM
TGI (SF-268 CNS): > 100 µM
TGI (UO-31 renal): 38.5 µM
TGI (MALME-3M melanoma): > 100 µM
TGI (SW-620 colon): > 100 µM
TGI (MOLT-4 leukemia): > 100 µM
TGI (DU-145 prostate): > 100 µM
TGI (SK-OV-3 ovarian): > 100 µM
TGI (CCRF-CEM leukemia): 15.5 µM
TGI (NCI-H460 lung): > 100 µM

Cc1cc(S(=O)(=O)Nc2nnc3c(C(F)(F)F)cc(Cl)cn23)c(S)cc1Cl
TGI (U251 CNS): > 100 µM
TGI (SF-268 CNS): > 100 µM
TGI (UO-31 renal): > 100 µM
TGI (MALME-3M melanoma): > 100 µM
TGI (SW-620 colon): > 100 µM
TGI (MOLT-4 leukemia): > 100 µM
TGI (DU-145 prostate): > 100 µM
TGI (SK-OV-3 ovarian): > 100 µM
TGI (CCRF-CEM leukemia): > 100 µM
TGI (NCI-H460 lung): > 100 µM

N#CC1=C(N)C(C#N)(C#N)C(c2ccc(F)cc2)C=C1C1CC1 (stereo not given)
TGI (U251 CNS): 18.2 µM
TGI (SF-268 CNS): 16 µM
TGI (UO-31 renal): 27.2 µM
TGI (MALME-3M melanoma): 26.8 µM
TGI (SW-620 colon): 56 µM
TGI (MOLT-4 leukemia): 25.5 µM
TGI (DU-145 prostate): 25.6 µM
TGI (SK-OV-3 ovarian): 30 µM
TGI (CCRF-CEM leukemia): 31.7 µM
TGI (NCI-H460 lung): 17.6 µM

CCOC(=O)c1ccc(C(=O)C(C(C)=O)C(=O)OC(C)(C)C)n1C (stereo not given)
TGI (U251 CNS): > 100 µM
TGI (SF-268 CNS): > 100 µM
TGI (UO-31 renal): > 100 µM
TGI (MALME-3M melanoma): > 100 µM
TGI (SW-620 colon): > 100 µM
TGI (MOLT-4 leukemia): > 100 µM
TGI (DU-145 prostate): > 100 µM
TGI (SK-OV-3 ovarian): > 100 µM
TGI (CCRF-CEM leukemia): > 100 µM
TGI (NCI-H460 lung): > 100 µM

CC(C)(CO)CNc1nc(N)nc(Cl)c1N
TGI (U251 CNS): > 100 µM
TGI (SF-268 CNS): > 100 µM
TGI (UO-31 renal): > 100 µM
TGI (MALME-3M melanoma): > 100 µM
TGI (SW-620 colon): > 100 µM
TGI (MOLT-4 leukemia): > 100 µM
TGI (DU-145 prostate): > 100 µM
TGI (SK-OV-3 ovarian): > 100 µM
TGI (CCRF-CEM leukemia): > 100 µM
TGI (NCI-H460 lung): > 100 µM

c1ccc(CCN2CCCCCC2)nc1
TGI (U251 CNS): > 100 µM
TGI (SF-268 CNS): > 100 µM
TGI (UO-31 renal): > 100 µM
TGI (MALME-3M melanoma): > 100 µM
TGI (SW-620 colon): > 100 µM
TGI (MOLT-4 leukemia): > 100 µM
TGI (DU-145 prostate): > 100 µM
TGI (SK-OV-3 ovarian): > 100 µM
TGI (CCRF-CEM leukemia): > 100 µM
TGI (NCI-H460 lung): > 100 µM
